Data on one compound can be found in patent US10202391B2, “Chemical compounds” (AstraZeneca AB, priority 2015, dated 2019).

One assay concerns the target T1, ERK2 (Homo sapiens, UniProt P28482).
T1 construct: made in house
Briefly: ERK2 Rapidfire Mass Spectrometry Inhibition of Catalysis Assay. The assay is classed as biochemical. The following applies: 1.2 nM ERK2, 16 μM Erktide, 120 μM ATP (measured Km), 15 minute pre-incubation; read-out: ERK2 Mass Spectrometry Enzyme IC50. Summed up: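 In-house MEK-activated ERK2 (1.2 nM) in 50 mM Tris pH 7.5, 10 mM MgCl2, 0.1 mM EGTA, 10 mM DTT, 0.01% CHAPS; 12-point dose range 10–0.0000125 μM, 1% DMSO. Reaction 20 min at room temperature, formic acid quench; Erktide and phospho-Erktide measured by RapidFire mass spectrometry to give IC50.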

The subject of another assay is A549 cell line. The experiment in a line: Combination cell growth inhibition (Sytox Green, Loewe synergy), A549. The assay is classed as cell-based, human. The following applies: Example 18 with selumetinib, 6x6 dosing matrix 0-10 μmol/L, 3 days, Loewe model, average of three or more experiments. From the text:
(§1) A549 is a human non small cell lung cancer line carrying an oncogenic mutation in the KRAS gene (G12S). H2122 is a human non small cell lung cancer line carrying an oncogenic mutation in the KRAS gene (G12C). H2009 is a human non small cell lung cancer line carrying an oncogenic mutation in the KRAS gene (G12A). Calu6 is a human non small cell lung cancer line carrying mutation in the KRAS ([…]) gene. All cell lines were obtained from the American Type Culture Collection.
(§2) All cell line were maintained at 37° C. and 5% CO2 in a humidified atmosphere and grown in RPMI-1640 growth media supplemented with 10% FBS and 2 mmol/L glutamine. […]
(§3) Cells were seeded in 384-well black, clear bottomed plates (Greiner Bio-One, Stonehouse, UK), cultured for 18-24 hours and treated with increasing concentrations of Example 18 and selumetinib (0-10 μmol/L) in a 6×6 dosing matrix. […] After 3 days of treatment, live cell number was determined using a Sytox Green endpoint as described previously (“Davies B R, Greenwood H, Dudley P, et al: Preclinical pharmacology of AZD5363, an inhibitor of AKT: Pharmacodynamics, antitumor activity, and correlation of monotherapy activity with genetic background. Mol Cancer Ther 11(4):873-87, 2012”). […] Cells were then permeabilised by the overnight addition of saponin (0.03% final concentration, diluted in TBS-EDTA buffer) and a total cell count measured. […]

The test system of the next assay is Calu6 cell line. Briefly: Combination cell growth inhibition (Sytox Green, Loewe synergy), Calu6. The class given is cell-based, human. The following applies: Example 18 with selumetinib, 6x6 dosing matrix 0-10 μmol/L, 3 days, Loewe model, average of three or more experiments.
From the text: as §1, §2, §3

A further assay relates to H2122 cell line. Briefly: Combination cell growth inhibition (Sytox Green, Loewe synergy), H2122. The class given is cell-based, human. Conditions: Example 18 with selumetinib, 6x6 dosing matrix 0-10 μmol/L, 3 days, Loewe model, average of three or more experiments.
From the text: as §1, §2, §3

By IC50 is commonly meant the concentration needed to halve the response being measured.

T1 sequence (P28482 whole entry): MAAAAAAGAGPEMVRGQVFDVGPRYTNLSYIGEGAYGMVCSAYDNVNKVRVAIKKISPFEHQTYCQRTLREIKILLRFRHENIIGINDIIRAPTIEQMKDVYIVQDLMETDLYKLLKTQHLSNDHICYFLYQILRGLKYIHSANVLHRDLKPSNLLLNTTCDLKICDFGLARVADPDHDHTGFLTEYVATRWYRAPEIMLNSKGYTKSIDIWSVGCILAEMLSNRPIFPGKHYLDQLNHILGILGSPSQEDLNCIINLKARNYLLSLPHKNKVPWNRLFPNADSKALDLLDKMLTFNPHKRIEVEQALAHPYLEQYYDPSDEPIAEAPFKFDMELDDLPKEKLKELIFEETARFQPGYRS

With `COC[C@H]1Cn2cc(-c3nc(Nc4ccnn4C)ncc3C)nc2C(=O)N1Cc1ccc(F)c(F)c1` [Example 18, (R)-7-(3,4-Difluorobenzyl)-6-(methoxymethyl)-2-(5-methyl-2-((1-methyl-1H-pyrazol-5-yl)amino)pyrimidin-4-yl)-6,7-dihydroimidazo[1,2-a]pyrazin-8(5H)-one], the IC50 at ERK2 came to 0.6 nM. Also, the Synergy score came to 25 in the assay with A549 cell line, 3 in the assay on Calu6 cell line and 14.3 with H2122 cell line.
